Patent EP0620225B1, “Cephalosporin derivatives” (Basilea Pharmaceutica AG, priority 1993, dated 1994)
Values after ≈ are worked out from the molar mass of the structure shown.

Legend:
E.faecalis [1] = assay: In vitro activity against selected species (MIC50, MIC90, range); assay type: cell-based; conditions: Enterococcus faecalis, medium IsoB
Escherichia coli 25922 = assay: Efficacy against systemic infections (septicemia) in mice; assay type: in vivo; conditions: 96 h, survival day 4
Procedure: (§1) Septicemia was induced in outbred Swiss albino mice (Jbm MoRo [specific pathogen free]; weight 16 to 20 g, Biomedical Research Laboratories, Füllinsdorf, Switzerland). Mice were infected by intraperitoneal injection of diluted overnight cultures of the test organisms. Bacterial challenge doses were 4-10 times the number of organisms required to kill 50% of untreated animals within 48 h. The test compounds were administered p.o. or s.c. 1 and 3 h after the bacterial challenge. To treat the infection with Pseudomonas aeruginosa BA an additional dose was given 5 h after challenge. Control and treatment groups at each dose were composed of five mice each. The 50% effective dose (ED50, in milligrams per kilogram) was calculated by probit analysis as described by Finney (Finney, D.J. 1978, Statistical method in biological assay, 3rd ed. Charles Griffin & Co., Ltd., London), from the survival rates on day 4 after infection.

S.aureus Smith = assay: as above; assay type: in vivo; conditions: Staphylococcus aureus, 96 h, sc 1 and 3 h after challenge, survival day 4
Procedure: as §1

M.catarrhalis = assay: In vitro activity against selected species (MIC50, MIC90, range); assay type: cell-based; conditions: Moraxella catarrhalis, medium IsoB
E.faecalis 6 = assay: Antibacterial spectrum (MIC), agar dilution; assay type: cell-based; conditions: Enterococcus faecalis, read-out: MIC
Procedure: (§2) In vitro activity was determined by minimum inhibitory concentration in a microorganism spectum by the agar dilution method in Mueller Hinton agar.

E.cloacae 908R = assay: Antibacterial spectrum (MIC), agar dilution; assay type: cell-based; conditions: Enterobacter cloacae, read-out: MIC
Procedure: as §2

P.aeruginosa 27853 = assay: Antibacterial spectrum (MIC), agar dilution; assay type: cell-based; conditions: Pseudomonas aeruginosa, read-out: MIC
Procedure: as §2

Acinetobacter sp.51-156 = assay: Antibacterial spectrum (MIC), agar dilution; assay type: cell-based; conditions: SP.51156, read-out: MIC
Procedure: as §2

S.aureus 734 MRSA = assay: Antibacterial spectrum (MIC), agar dilution; assay type: cell-based; conditions: Staphylococcus aureus, read-out: MIC
Procedure: as §2

S.viridans group 016 = assay: Antibacterial spectrum (MIC), agar dilution; assay type: cell-based; conditions: Streptococcus viridans, read-out: MIC
Procedure: as §2

X.maltophilia 1AC739 = assay: Antibacterial spectrum (MIC), agar dilution; assay type: cell-based; conditions: Stenotrophomonas maltophilia, read-out: MIC
Procedure: as §2

M.morganii 6H-137 = assay: Antibacterial spectrum (MIC), agar dilution; assay type: cell-based; conditions: Morganella morganii, 6H137, read-out: MIC
Procedure: as §2

P.vulgaris 1028 = assay: Antibacterial spectrum (MIC), agar dilution; assay type: cell-based; conditions: Proteus vulgaris, read-out: MIC
Procedure: as §2

E.coli 25922 = assay: Antibacterial spectrum (MIC), agar dilution; assay type: cell-based; conditions: Escherichia coli, read-out: MIC
Procedure: as §2

K.pneumoniae 418 = assay: Antibacterial spectrum (MIC), agar dilution; assay type: cell-based; conditions: Klebsiella pneumoniae, read-out: MIC
Procedure: as §2

S.pneumoniae Q19 = assay: Antibacterial spectrum (MIC), agar dilution; assay type: cell-based; conditions: Streptococcus pneumoniae, read-out: MIC
Procedure: as §2

S.aureus 6538 = assay: Antibacterial spectrum (MIC), agar dilution; assay type: cell-based; conditions: Staphylococcus aureus, read-out: MIC
Procedure: as §2

S.marcescens 69438 = assay: Antibacterial spectrum (MIC), agar dilution; assay type: cell-based; conditions: Serratia marcescens, read-out: MIC
Procedure: as §2

C.freundii 902 = assay: Antibacterial spectrum (MIC), agar dilution; assay type: cell-based; conditions: Citrobacter freundii, read-out: MIC
Procedure: as §2

N.meningitidis 69480 = assay: Antibacterial spectrum (MIC), agar dilution; assay type: cell-based; conditions: Neisseria meningitidis, read-out: MIC
Procedure: as §2

S.agalactiae QK44 = assay: Antibacterial spectrum (MIC), agar dilution; assay type: cell-based; conditions: Streptococcus agalactiae, read-out: MIC
Procedure: as §2

S.pyogenes B15 = assay: Antibacterial spectrum (MIC), agar dilution; assay type: cell-based; conditions: Streptococcus pyogenes, read-out: MIC
Procedure: as §2

E.cloacae 908SSi = assay: Antibacterial spectrum (MIC), agar dilution; assay type: cell-based; conditions: Enterobacter cloacae, read-out: MIC
Procedure: as §2

M.catarrhalis RA21 = assay: Antibacterial spectrum (MIC), agar dilution; assay type: cell-based; conditions: Moraxella catarrhalis, read-out: MIC
Procedure: as §2

H.influenzae 1 = assay: Antibacterial spectrum (MIC), agar dilution; assay type: cell-based; conditions: Haemophilus influenzae, read-out: MIC
Procedure: as §2

C.freundii 43 = assay: Antibacterial spectrum (MIC), agar dilution; assay type: cell-based; conditions: Citrobacter freundii, read-out: MIC
Procedure: as §2

L.monocytogenes BK23 = assay: Antibacterial spectrum (MIC), agar dilution; assay type: cell-based; conditions: Listeria monocytogenes, read-out: MIC
Procedure: as §2

P.mirabilis 2117 = assay: Antibacterial spectrum (MIC), agar dilution; assay type: cell-based; conditions: Proteus mirabilis, read-out: MIC
Procedure: as §2

E.faecium = assay: In vitro activity against selected species (MIC50, range); assay type: cell-based; conditions: Enterococcus faecium, medium MHA
Procedure: as §2

S.viridans group = assay: In vitro activity against selected species (MIC50, MIC90, range); assay type: cell-based; conditions: Streptococcus viridans
S.pneumoniae PEN-R = assay: as above; assay type: cell-based; conditions: Streptococcus pneumoniae; for MIC: MIC range
S.aureus MRSA = assay: as above; assay type: cell-based; conditions: Staphylococcus aureus, medium MHA (Mueller Hinton Agar) +NaCl; for MIC: MIC range
Procedure: as §2

E.faecalis [2] = assay: as above; assay type: cell-based; conditions: Enterococcus faecalis, medium MHA; for MIC: MIC range
Procedure: as §2

S.aureus MSSA = assay: as above; assay type: cell-based; conditions: Staphylococcus aureus, medium MHB (Mueller Hinton Broth)
[3] = medium IsoB (Isosensitest Broth)

## CON1CC/C(=C\C2=C(C(=O)O)N3C(=O)[C@@H](NC(=O)/C(=N\O)c4csc(N)n4)[C@H]3SC2)C1=O [G]
E.faecalis [1]; MIC range
  MIC: 0.25 to 2 µg/mL (≈ 0.506 to 4.04 µM)
E.faecalis [1]
  MIC50: 0.5 µg/mL (≈ 1.01 µM)
  MIC90: 2 µg/mL (≈ 4.04 µM)
Escherichia coli 25922; Escherichia coli 25922, po (orally) 1 and 3 h after challenge
  ED50: ~3 mg/kg
Escherichia coli 25922; Escherichia coli, E.coli 25922, sc 1 and 3 h after challenge
  ED50: < 0.1 mg/kg
S.aureus Smith
  ED50: < 1 mg/kg
M.catarrhalis; MIC range
  MIC: 1 to 32 µg/mL (≈ 2.02 to 64.7 µM)
M.catarrhalis
  MIC50: 4 µg/mL (≈ 8.09 µM)
  MIC90: 16 µg/mL (≈ 32.4 µM)
E.faecalis 6
  MIC: 1 µg/mL (≈ 2.02 µM)
E.cloacae 908R
  MIC: 32 µg/mL (≈ 64.7 µM)
P.aeruginosa 27853
  MIC: 32 µg/mL (≈ 64.7 µM)
Acinetobacter sp.51-156
  MIC: 8 µg/mL (≈ 16.2 µM)
S.aureus 734 MRSA
  MIC: 16 µg/mL (≈ 32.4 µM)
S.viridans group 016
  MIC: 0.5 µg/mL (≈ 1.01 µM)
X.maltophilia 1AC739
  MIC: > 32 µg/mL
M.morganii 6H-137
  MIC: ≤ 0.06 µg/mL
P.vulgaris 1028
  MIC: 2 µg/mL (≈ 4.04 µM)
E.coli 25922
  MIC: ≤ 0.06 µg/mL
K.pneumoniae 418
  MIC: ≤ 0.06 µg/mL
S.pneumoniae Q19
  MIC: ≤ 0.06 µg/mL
S.aureus 6538
  MIC: 0.5 µg/mL (≈ 1.01 µM)
S.marcescens 69438
  MIC: 1 µg/mL (≈ 2.02 µM)
C.freundii 902
  MIC: ≤ 0.06 µg/mL
N.meningitidis 69480
  MIC: ≤ 0.06 µg/mL
S.agalactiae QK44
  MIC: 0.25 µg/mL (≈ 0.506 µM)
S.pyogenes B15
  MIC: ≤ 0.06 µg/mL
E.cloacae 908SSi
  MIC: 0.25 µg/mL (≈ 0.506 µM)
M.catarrhalis RA21
  MIC: 16 µg/mL (≈ 32.4 µM)
H.influenzae 1
  MIC: 0.12 µg/mL (≈ 0.243 µM)
C.freundii 43
  MIC: 4 µg/mL (≈ 8.09 µM)
L.monocytogenes BK23
  MIC: 2 µg/mL (≈ 4.04 µM)
P.mirabilis 2117
  MIC: ≤ 0.06 µg/mL
E.faecium; MIC range
  MIC: 1 to 8 µg/mL (≈ 2.02 to 16.2 µM)
E.faecium
  MIC50: 4 µg/mL (≈ 8.09 µM)
S.viridans group
  MIC50: 2 µg/mL (≈ 4.04 µM)
  MIC90: 2 µg/mL (≈ 4.04 µM)
S.viridans group; MIC range
  MIC: 0.12 to 8 µg/mL (≈ 0.243 to 16.2 µM)
S.pneumoniae PEN-R; [3]
  MIC: 0.1 to 0.5 µg/mL (≈ 0.202 to 1.01 µM)
  MIC50: 0.25 µg/mL (≈ 0.506 µM)
  MIC90: 0.5 µg/mL (≈ 1.01 µM)
S.pneumoniae PEN-R; medium IsoB + 20% serum
  MIC: 0.12 to 0.5 µg/mL
  MIC50: 0.5 µg/mL
S.aureus MRSA
  MIC: 8 to 16 µg/mL (≈ 16.2 to 32.4 µM)
  MIC50: 16 µg/mL (≈ 32.4 µM)
  MIC90: 16 µg/mL (≈ 32.4 µM)
E.faecalis [2]
  MIC: 0.5 to 2 µg/mL (≈ 1.01 to 4.04 µM)
  MIC50: ≤ 0.5 µg/mL
  MIC90: 2 µg/mL (≈ 4.04 µM)
S.aureus MSSA; MIC range
  MIC: 1 to 2 µg/mL (≈ 2.02 to 4.04 µM)
S.aureus MSSA
  MIC50: 1 µg/mL (≈ 2.02 µM)
  MIC90: 1 µg/mL (≈ 2.02 µM)

## Nc1nc(/C(=N/O)C(=O)N[C@@H]2C(=O)N3C(C(=O)O)=C(/C=C4\CCN(c5ccccc5)C4=O)CS[C@H]23)cs1 [H]
S.aureus Smith
  ED50: < 0.5 mg/kg
E.faecalis 6
  MIC: 0.25 µg/mL (≈ 0.462 µM)
E.cloacae 908R
  MIC: 16 µg/mL (≈ 29.6 µM)
P.aeruginosa 27853
  MIC: 32 µg/mL (≈ 59.2 µM)
Acinetobacter sp.51-156
  MIC: 32 µg/mL (≈ 59.2 µM)
S.aureus 734 MRSA
  MIC: 8 µg/mL (≈ 14.8 µM)
S.viridans group 016
  MIC: 1 µg/mL (≈ 1.85 µM)
X.maltophilia 1AC739
  MIC: > 32 µg/mL
M.morganii 6H-137
  MIC: ≤ 0.06 µg/mL
P.vulgaris 1028
  MIC: 2 µg/mL (≈ 3.7 µM)
E.coli 25922
  MIC: 0.25 µg/mL (≈ 0.462 µM)
K.pneumoniae 418
  MIC: 0.12 µg/mL (≈ 0.222 µM)
S.pneumoniae Q19
  MIC: 0.12 µg/mL (≈ 0.222 µM)
S.aureus 6538
  MIC: 0.5 µg/mL (≈ 0.925 µM)
S.marcescens 69438
  MIC: 1 µg/mL (≈ 1.85 µM)
C.freundii 902
  MIC: 0.5 µg/mL (≈ 0.925 µM)
N.meningitidis 69480
  MIC: 0.12 µg/mL (≈ 0.222 µM)
S.agalactiae QK44
  MIC: 0.25 µg/mL (≈ 0.462 µM)
S.pyogenes B15
  MIC: ≤ 0.06 µg/mL
E.cloacae 908SSi
  MIC: 0.5 µg/mL (≈ 0.925 µM)
M.catarrhalis RA21
  MIC: > 16 µg/mL
H.influenzae 1
  MIC: 0.5 µg/mL (≈ 0.925 µM)
C.freundii 43
  MIC: 4 µg/mL (≈ 7.4 µM)
P.mirabilis 2117
  MIC: ≤ 0.06 µg/mL
S.aureus MRSA
  MIC: 16 to 32 µg/mL (≈ 29.6 to 59.2 µM)
  MIC50: 16 µg/mL (≈ 29.6 µM)
  MIC90: 16 µg/mL (≈ 29.6 µM)
E.faecalis [2]
  MIC: 0.5 to 16 µg/mL (≈ 0.925 to 29.6 µM)
  MIC50: 1 µg/mL (≈ 1.85 µM)
  MIC90: 1 µg/mL (≈ 1.85 µM)
